The text below walks through data of patent US12447216B2, “Biogenic hemin-based MRI contrast agents, and compositions and methods thereof” (University of Massachusetts, priority 2017, dated 2025).

A short description of data set [1]: Histological analysis (hematoxylin and eosin) of major organs. The data set is classed as in vivo. Particulars: mice; 14 days after administration. Here is the method: (§1) The biocompatibility of hematin for injection was comprehensively investigated, for example, via blood routine examination, histological analysis, and body weight monitoring.
Subsequently, hematoxylin and eosin examinations were performed on major organs (e.g., heart, liver, spleen, lung, and kidney) collected from healthy mice and those treated with HeOH-PEG. […] No significant differences were found between the cellular morphology of the studied organs in the HeOH-PEG treated group and the control group (FIG. 10).

A short description of data set [2]: Body weight monitoring after tail vein injection. The data set is classed as in vivo. Particulars: mice, versus PBS control, 2 weeks.
Description: as §1

On the set-up of data set [3]: species or system mice. Particulars: mouse, in vivo, iv.
Description: as §1
Another group of mice injected with PBS were used as control.
Meanwhile, blood samples were collected at different intervals after treatment with HeOH-PEG. […] Another group of mice injected of PBS were used as control.

Data set [4] is described as follows: In vivo MR imaging / MR angiography after tail vein injection. Particulars: nude mice, 2 mg/kg/day, FIG. 2. On the procedure: (§2) FIG. 1 is a graph showing r1 values and 1/T1 values according to Fe concentrations of metalloporphyrin-based MRI-CAs after dispersion in water. […] To further evaluate its MRI performance in vivo, hematin at a dose of 2 mg/kg/day, which is within the recommended range for clinical use, was administered into the tail veins of nude mice.
To study the potential application of HeOH-PEG for in vivo MRI, a series of MR imaging were performed at different time points after HeOH-PEG was injected via tail vein into health node mice (500 μL, 0.48 mmol […] per kg mice). FIG. 11 is the 3D image of MR angiography acquired from the mouse after intravenous injection with HeOH-PEG.
The MR signal enhancement with excellent contrast in the vasculature lasted until 60 min post injection.

For data set [5] the following is noted: only in a rare case; cited from earlier work.
A short description of data set [6]: T1 relaxivity (r1) measurement and T1-weighted in vitro MR imaging. The format is physicochemical. On the procedure:
Hematin was studied for its properties in MR imaging.
as §2
The composition of the prepared He-PEG was confirmed by NMR spectroscopy. […] The ^1H NMR spectrum of the He-PEG nanoparticles confirmed the successful conjugation of He with PEG2000. The magnetic property of the produced He-PEG particles was determined by measuring the longitudinal relaxivity values, which referred to the slope of the 1/T1 (R1) plot versus Fe ion concentration.
FIGS. 5 and 6 show r1 values and 1/T1 values according to Fe concentrations of He—OH after dispersion in water.

On to `C=CC1=C(C)c2cc3[n-]c(cc4[n-]c(cc5nc(cc1n2)C(C)=C5C=C)c(C)c4CCC(=O)O)c(CCC(=O)O)c3C.O.[Fe+2]` [hematin], for which the “histological changes in heart, liver, spleen, lung and kidney” value in data set [1] is “no obvious histological changes”. In addition, the body weight change entry in data set [2] is listed as “no significant changes compared to the control group”. In addition, in data set [3], the “blood routine examination parameters versus normal range” value is listed as “within the normal range”. For the same compound, the “T1 signal in vivo after intravenous administration” value in data set [4] is “increase in the T1 signal was clearly observed in the heart and large vessel”. Besides, in data set [5], the “excessive hematin dose reported to induce reversible renal shutdown” value is reported as 12.2 mg/kg. In data set [6] (3.0 T MR scanner, dispersion in water, FIG. 1), the T1 relaxivity value worked out at 0.424 mM⁻¹ s⁻¹. In data set [6] (dispersion in water), the “r1 value (longitudinal relaxivity, slope of 1/T1 versus Fe ion concentration)” value came to 0.424 s^−1 mM^−1 Fe. Also, the “T1-weighted in vitro MR imaging signal” value in data set [6] (various Fe concentrations) is listed as “concentration-dependent brightening effect”.
